In BindingDB's records for patent US20250163072 (Hoffmann-La Roche, 2025) one finds IC50 data, which are given here for three compounds.

The target in this test is GTPase KRas [G12C]/Serine/threonine-protein kinase B-raf (Human, UniProt P01116+P15056, G12C). The test can be described thus: KRAS G12C-BRAF NanoBit Assay. On the procedure:
HEK293 cells were grown and maintained using DMEM medium (Thermo Fisher Scientific) with 10% fetal bovine serum and 1% penicillin/streptomycin. Both KRAS G12C and BRAF RBD were cloned into the NanoBit vectors ([…] vectors system, Promega) with the orientations SmBit-KRAS G12C and BRAF RBD-LgBit, respectively, and co-transfected into HEK293 cells. Cells were then selected with 100 μg/mL Hygromycin B (10687010, Thermo Fisher) and Blasticidin (5 μg/mL) for 4 weeks to get the stable cell pool. On the day of the assay, 75 nL of compound solution was presented in a 384-well assay plate as a 16-point 3-fold dilution starting from a final concentration of 30 μM in DMSO. Then cells were seeded at 10,000 cells/25 μL/well in a 384-well plate. After 3 hours of incubation, 6 μL of volume of Nano-Glo Live Cell Substrate (Promega) was added into each well. Monitor luminescence using ultra384 model in Envision at 20 minutes. Compounds that facilitate disruption of the KRAS G12C-BRAF RBD complex were identified as those eliciting a decrease of luminescence relative to DMSO control wells.

Structures are written as SMILES. pIC50: −log10 of the molar value.

GTPase KRas [G12C]/Serine/threonine-protein kinase B-raf, sequence (P01116 whole entry G12C): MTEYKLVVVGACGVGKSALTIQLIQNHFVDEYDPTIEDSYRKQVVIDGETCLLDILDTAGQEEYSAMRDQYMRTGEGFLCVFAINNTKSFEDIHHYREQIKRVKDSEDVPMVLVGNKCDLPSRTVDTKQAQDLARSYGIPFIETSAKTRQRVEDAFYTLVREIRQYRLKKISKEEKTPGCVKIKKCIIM
GTPase KRas [G12C]/Serine/threonine-protein kinase B-raf, sequence (P15056 2-766 limits assumed): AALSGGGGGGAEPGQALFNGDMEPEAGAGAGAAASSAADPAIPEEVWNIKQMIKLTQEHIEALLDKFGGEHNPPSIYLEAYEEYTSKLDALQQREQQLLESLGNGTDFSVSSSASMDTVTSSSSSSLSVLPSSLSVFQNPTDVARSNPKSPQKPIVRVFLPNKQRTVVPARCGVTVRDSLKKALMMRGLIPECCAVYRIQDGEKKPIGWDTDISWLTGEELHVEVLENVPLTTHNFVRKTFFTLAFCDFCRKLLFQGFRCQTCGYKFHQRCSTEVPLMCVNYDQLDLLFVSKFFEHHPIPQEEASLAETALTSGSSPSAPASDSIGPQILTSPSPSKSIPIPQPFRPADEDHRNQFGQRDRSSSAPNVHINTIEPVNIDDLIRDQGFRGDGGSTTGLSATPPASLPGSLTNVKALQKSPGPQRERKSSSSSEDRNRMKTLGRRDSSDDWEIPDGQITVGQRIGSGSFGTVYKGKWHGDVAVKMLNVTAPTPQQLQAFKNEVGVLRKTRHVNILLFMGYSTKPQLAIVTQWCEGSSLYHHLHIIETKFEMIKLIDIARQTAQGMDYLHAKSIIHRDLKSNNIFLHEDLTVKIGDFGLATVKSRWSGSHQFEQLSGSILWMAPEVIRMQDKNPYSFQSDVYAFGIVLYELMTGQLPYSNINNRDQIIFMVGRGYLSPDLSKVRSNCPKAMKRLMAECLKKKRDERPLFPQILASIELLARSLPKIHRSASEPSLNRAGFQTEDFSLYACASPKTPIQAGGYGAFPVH

As for `CCn1c(-c2cccnc2[C@H](C)OC)c2c3cc(ccc31)-c1cc(O)cc(c1)C[C@H](NC(=O)[C@H](C(C)C)N(C)C(=O)C1CCN(C(=O)C#CCN3CCOCC3)C1)C(=O)N1CCC[C@H](N1)C(=O)OCC(C)(C)C2` (stereo partly drawn) [US20250163072, Example RM018], the negative logarithm of the IC50 (pIC50) was 6.57.
With `CC(C)[C@@H](C(=O)N[C@H]1Cc2cc(O)cc(c2)-c2ccc3c(C(C)(C)C#N)cn(c3c2)CC(C)(C)COC(=O)[C@@H]2CCCN(N2)C1=O)N1CCCC2(CCN(C(=O)CCl)C2)C1=O` (stereo partly drawn) [US20250163072, Example RM351], the pIC50 was 5.75.
Then `CCn1c(-c2cccnc2[C@H](C)OC)c2c3cc(ccc31)-c1cc(O)cc(c1)C[C@H](NC(=O)[C@H](C(C)C)N(C)C(=O)C1CN(C(=O)CCl)C1)C(=O)N1CCC[C@H](N1)C(=O)OCC(C)(C)C2` [US20250163072, Example RM461], with 6.36.
